From a melting point compilation (Tetko et al.; mined from patent text by program, amines drawn as free bases though some values may be those of a salt)

melting point [°C]	Structure (SMILES)
> 280	CNc1c(F)cc2c(=O)c(C(=O)O)cn(-c3cc(N)c(F)cc3Br)c2c1Cl
74 to 88	Cc1cc2c(s1)Nc1ccccc1N=C2N1CCN(C)[C@@H](COc2ccccc2)C1
109 to 110	O=C1CCCCC1C(C[N+](=O)[O-])c1ccc(Cl)c(Cl)c1 (racemic)
> 250	C[C@H](c1ccccc1)n1c(O)nc2c(N)nc3ccccc3c21
88 to 93	C=CCN(C)CCCCCCOc1ccc2c(-c3ccc(Br)cc3)cc(C)nc2c1
191 to 192	NC(=O)c1[nH]c2ccccc2c1Cl
85 to 91	Cc1nc(-c2ccc(C(C)(C)C)cc2)sc1C(=O)N[C@H](C)[C@](O)(Cn1cncn1)c1ccc(F)cc1F
150 to 151	Nc1ccc2c(c1)SN(CCCCN1CCN(c3ncccn3)CC1)C2
85 to 87	C[C@H](c1ccccc1)N1CCO[C@@H](c2ccc(Br)cc2)C1
172	Cc1ccc(-c2cnc([C@H]3CC[C@H](C#N)CC3)nc2)cc1
135 to 137	C=CC(=O)Oc1c(Br)c(Br)c(Br)c(Br)c1OC(=O)C=C
176 to 178	CCOCc1nc2c(N)nc3ccccc3c2n1CCCCCS(N)(=O)=O
148 to 150	CNC(=O)c1c(-c2ccccc2)noc1CC(O)c1ccc(C)cc1 (stereo unspecified)
123 to 124	Cc1cc(C)nc(NC(=O)Cc2c(Cl)sc3ccccc23)c1
278 to 283	CC(C)NC1=NS(=O)(=O)c2cc(N)ccc2N1
211 to 212	CN(C)S(=O)(=O)c1cc2c(c(C(=O)O)c1)OC(C)(C)C2
159 to 160	CCCCC(=N)NC(=O)Nc1ccc(C)cc1
216	CC1(C)OC(=O)C(c2ccc(-c3cscn3)cc2)=C1c1ccc(S(C)(=O)=O)cc1
280 to 282	CC(C)c1cc2c(=O)n3cc(C(N)=O)ccc3nc2s1
179 to 180	COc1ccc(CNc2nnc(Cl)c3cc([N+](=O)[O-])ccc23)cc1Cl
110 to 114	COC(=O)[C@@H](O)[C@H](CC(C)C)NC(=O)[C@H](Cc1c[nH]cn1)NC(=O)[C@H](Cc1cccc2ccccc12)NC(=O)OCc1ccccc1
169 to 171	CCC(=O)Nc1ccc(OCc2nc(Cl)ccc2Cl)cc1
94 to 95	Cc1onc(-c2ccc(Cl)cc2)c1CO
124 to 125	Fc1ccc(/C=C/c2nc(COc3ccc(CCCCn4ccnn4)cc3)co2)cc1
164	Cc1ccc(-c2ccc3c(c2)C=C(C(=O)Nc2ccc(CCl)cc2)CCO3)cc1

melting point [°C]	Structure (SMILES)
153 to 154	CCCn1c(=O)c(C=O)c2n(c1=O)CCCS2
> 350	O=c1[nH]c2cc(Cl)ccc2c(O)c1-c1cccc(I)c1
192 to 197	CC(=O)Nc1cc2c(cc1[N+](=O)[O-])C(CC(C)C)C(=O)N2 (stereo unspecified)
239 to 241	O=[N+]([O-])c1ccccc1Cc1n[nH]c(S)n1
151 to 153	COc1ccc(Cl)cc1N1CCN(CCCNC(=O)c2cccc3c(=O)c(C)c(C(=O)N(C)C)oc23)CC1
125 to 127	CCCCc1c(C)[nH]c(C(=O)OCC)c1OCC1CO1 (stereo unspecified)
155 to 156	Cc1cc2c(c(-c3cc(Cl)ccc3Cl)c1)OC(CN)C2 (stereo unspecified)
200 to 201	CC(C)Cn1c(=O)n(C)c(=O)c2c(Sc3ccc([N+](=O)[O-])cn3)c(Cc3cccc4ccccc34)sc21
162 to 164	O=C1N(CC2COCCO2)c2ccccc2C12COc1cc3c(cc12)OCC3 (stereo unspecified)
127 to 129	CC(=O)C1CCC2C3CCC4CC=CCC4(C)C3C(OC(=O)CI)CC12C (stereo unspecified)
50 to 52	CS(=O)(=O)C1CCCC1Br (stereo unspecified)
151 to 154	COc1ccc(CCCc2cnc(N)nc2N)cc1
103 to 107	CCCc1c(O)cccc1Oc1ccccc1C#N
294 to 295	O=C(O)c1ccc2c(c1)Sc1ccc(Cl)cc1C2
70 to 71	CCCCCN(CCc1c[nH]c2ccccc12)C(=O)CCCC(=O)OC
84 to 86	Cc1ccc(COCc2c(C(C)C)cc(C(C)C)c(C(C)O)c2-c2ccc(F)cc2)cc1 (single isomer, unassigned; (+))
88 to 90	CCc1nc2cc([N+](=O)[O-])ccc2o1
146 to 148	Cn1c(SCC(=O)C23CC4CC(CC(C4)C2)C3)nc2ccccc21
132 to 134	O=C(NC1CCCCC1)c1cccc(Cn2cnc3ccccc32)c1
197 to 198	CC(O)c1ccc(Cc2cn(-c3ccc(F)cc3)c3ncccc3c2=O)cc1 (stereo unspecified)
231 to 232	NC(=O)[C@@H]1[C@H](Nc2c(Br)cnc3[nH]c(-c4ccoc4)nc23)[C@H]2C=C[C@@H]1C2
163 to 165	CC(C)(CC(O)(Cn1ccc(=O)c2sccc21)C(F)(F)F)c1cc(S(C)(=O)=O)cc2c1OCC2 (stereo unspecified)
175 to 178	CCOC1=NC(C)(C)NC(N)=N1
161 to 163	COc1cc(CN2C(=O)C3(COc4cc5c(cc43)OCCO5)c3ccccc32)ccc1F (stereo unspecified)
157	CC(C)(C)OC(=O)C1(O/N=C(\C(=O)O)c2csc(NC(c3ccccc3)(c3ccccc3)c3ccccc3)n2)CC1

melting point [°C]	Structure (SMILES)
154 to 156	CCOC(=O)C1(C(=O)OCC)CCC2(c3cc(OC)c(OC)cc3CCN2C(=O)CCN(C)C)C(C2c3cc(OC)c(OC)cc3CCN2C(C)=O)C1 (stereo unspecified)
166 to 167	CC1=C(C2C=CN(C(=O)OCC(Cl)(Cl)Cl)c3ccccc32)SCC(=O)N1 (stereo unspecified)
78.5 to 80.5	CCON=C(c1ccccc1COc1ccccc1)n1cncn1
150 to 152	CN1CCN(c2nn(-c3ccc(Cl)cc3Cl)c3ccccc23)CC1
87 to 100	CC(C)(CCCCCCCCCCC(C)(C)C(O)C(=O)O)C(O)C(=O)O (stereo unspecified)
117 to 119	CC(=O)c1cc([N+](=O)[O-])c2c(c1)C(C)(C)CCO2
173 to 175	CCOC(=O)Cn1c(N)nc(-c2ccccc2)c1-c1ccccc1
101	CNC(=O)[C@@H](NC(=O)[C@@H](CC(C)C)C(C(=O)O)C(=O)O)C(C)(C)C
200 to 204	Nc1sc(-c2ccc(Cl)cc2)c(CN(C2CCCCC2)C2CCCCC2)c1C(=O)c1ccc(Cl)cc1
118 to 119	OC(CCCc1ccccc1)c1ccc(OCc2ccc3ccccc3n2)cc1 (stereo unspecified)
155 to 156	CC(=O)c1ccsc1C(=O)O
91 to 92	OCCOCC(O)c1cccc2ccccc12 (stereo unspecified)
173 to 174	Fc1cccc(CSc2nnc(-c3ccc4nccn4c3)o2)c1
108 to 110	Cc1ccc(Oc2ccccc2NN)c(O)c1
176 to 177	Nc1nc(-c2ccc(CCNC(=O)Cc3ccccc3)cc2)cs1
288 to 290	Nc1cc2c(cn1)[nH]c1ccccc12
107 to 108	CCOC(=O)c1[nH]c2c(C)ccc(C)c2c1-c1ccccc1
202 to 204	Nc1ccc([N+](=O)[O-])cc1S(N)(=O)=O
115 to 116	CC(=O)OCCn1nc(-c2cc(C(C)(C)C)cc(C(C)(C)C)c2)c2cccnc21
200	CC(C)NC(=S)N1CCc2c(ncn2C)C1
223 to 225	CC(C)c1cc2c(c(C(C)C)c1)Oc1ccc(C(N)=O)cc1N(CCN(C)C)C2=O
150 to 151	CC(=O)c1c(-c2ccc(F)cc2)nn(CC2CC2)c(=O)c1Nc1cccc2cccnc12
104 to 105	Cc1nc(NC(=O)c2cc(Cl)cc(Cl)c2)sc1C(=O)NCc1ccccc1
165 to 166	CCC(CC(=O)O)c1ccc(C(=O)OC)cc1 (stereo unspecified)
307 to 309	Oc1ccc(-c2nc3cccc(O)c3[nH]2)cc1C12CC3CC(CC(C3)C1)C2

melting point [°C]	Structure (SMILES)
105 to 106	CC(=O)OCC(C)(Sc1cc2ccccc2[nH]1)c1ccccc1 (stereo unspecified)
164 to 166	COC(=O)c1cc2cc(OC)c(OCCCl)cc2[nH]1
53 to 55	CCCCCCCCCCCCN1CCN(CCCCCCNc2cc(OC)cc3c(C)ccnc23)CC1
91 to 93	CCCn1nc(-c2ccc(Cl)c(Cl)c2)c(-n2ccnc2)c1SC
56 to 59	O=C(Cc1cccs1)N1C(=O)OC[C@@H]1Cc1ccccc1
168 to 171	Nc1ccc(CS(=O)(=O)CCO)c(CS(=O)(=O)CCO)c1
110	COc1cccc2c1Oc1ccc(C(=O)OC(C)C)cc1NC2
52.5 to 53.5	CCCCCCCCCCCCCCC(=O)CCl
78.5 to 80	CC(C)(SCC(=O)O)c1ccc2c(c1)OCO2
157 to 159	COC(=O)CCNC(=O)c1ccc2c(c1)nc(-c1ccc(C#N)cc1)n2CCC(c1ccccc1)c1ccccc1
202	CN1CCC(c2c[nH]c3cc(F)c(OS(=O)(=O)c4c(F)cccc4F)cc23)CC1
112 to 116	COCCOc1cccc(-c2ccnc3c(C(=O)c4cccs4)cnn23)c1
120 to 122	CC(COc1c(-c2ccccc2)c(=O)oc2c(Cl)cccc12)CN1CCOCC1 (stereo unspecified)
100 to 104	CCC1CCCCN1C(=O)C=Cc1c(-c2cccc(Cl)c2)nn2ccccc12 (stereo unspecified)
163 to 165	CC(=O)NC[C@H]1CN(c2ccc(C3(F)CCNCC3)c(F)c2)C(=O)O1
264 to 265	COc1ccc2sc3c(c2c1)OCCNC3=O
167 to 168	CCOCc1nc2c(N)nc3cc(-c4cccc(C(=O)N5CCOCC5)c4)cnc3c2n1CC(C)(C)F
100 to 102	CCN(CC)C(=O)C(C)(C)Oc1ccc(-c2ccc(N3CCCCC3)cc2)cc1
119 to 121	COc1ccc(N(CCCC(=O)O)C(=O)CCCN(C(=O)c2ccc(Cl)cc2)c2c(C)cccc2C)cc1
179 to 181	Cc1cc(-c2ccccc2)n2nc(Cl)nc2n1
136 to 138	CCN(CCCC1CCN(CC(=O)N2c3ccccc3C(=O)Nc3cccnc32)CC1)C(=O)C(C)(C)CC
170 to 171	CCOC(=O)c1cn(-c2cnc3ccccc3c2)cn1
83 to 85	C#CCOc1ccc(C(=O)C=Cc2cccs2)c(O)c1

Structure (SMILES)	melting point [°C]
O=C(O)C(=O)NCCC(F)=C(F)F	95 to 100
CNC(=O)OC1c2ccccc2C(=O)N1c1ccc2ccc(Cl)nc2n1 (stereo unspecified)	260
O=C(CCCN1CC=C(c2noc(C3CC3)n2)CC1)c1ccc(F)cc1	67 to 68
